Marks after values point to notes of the source that are not given here.
Legend:
[1] = test system: progesterone, 17-oxyprogesterone, 11-desoxycortisol and cortisol; assay: Blood serum hormone levels (radioimmunoassay); type: in vivo, guinea pigs; settings: oral three times 50 µg/kg
Procedure: Sensibilization of animals was done as described in example 27. Blood for hormonal level determination was sampled in animals before commencement of experiment and 18 hours after the last drug administration from 10 to 11 hours. […] A comparative hormonal state analysis was carried out by individual changes in each animal in a group. Mean parametric values expressed in nM/l, are presented by the groups in table 21.
Blood serum levels of the hormones progesterone, 17-oxyprogesterone, 11-desoxycortisol and cortisol were determined by radioimmunoassay using the Beloris company kits. Hormone concentration in samples was determined by the relation graph between the activity of a precipitated bound labelled hormone and hormone concentration in the calibration samples.

peritoneal macrophages = assay: Activity of peritoneal macrophages (NBT reduction test); type: in vivo, mongrel white male mice
Procedure: Change in the activity of peritoneal macrophages (PM) as effected by the test compounds was studied.
Experiments were carried out on mongrel white male mice with initial body mass 20-22 g. Each group included 10 animals. Compounds III, VI, XLIV were dissolved in normal saline (NS). The test compounds were administered to animals orally for three days at doses 50 and 500 µg/kg. Animals of the control group were given equal volume of NS. Mice were sacrified 20 hours after the last compound administration, peritoneal cavity was washed with 1.5 ml Henks solution comprising 5 U/ml heparine. 0.1 ml of wash solution were incubated for 30 minutes at 37°C with 0.1 ml 0.2% nitroblue tetrasolium (NBT) solution, then smears were prepared. Nuclei were additionaly stained with o.1% neutral red solution. Results were expressed in percent of active cells [Klimov V.V., Kolovkina T.V. Nitroblue tetrasolium reduction test stimulated with pyrogenal. Laborotornoye delo (Laboratory matter) (1982), No 10, pp. 624-625]. […]

Human lymphocytes = assay: Concanavalin A-induced blasttransformation of lymphocytes; type: cell-based
Procedure: Human lymphocytes were used for blasttransformation reaction [Kiseleva E.P., Tsveibakh A.S., Goldman E.I., Pigareva N.V. Application of a micromethod to study blasttransformation of lymphocytes in humans and animals. Immunology (1985), No 1, pp. 76-78]. 10 ml blood were collected into a sterile syringe containing heparine (to final concentration 25 U/ml) and incubated to sediment red blood cells (60-90 minutes at 37°C). Leukocytic suspension layer was selected and the number of nucleated cells was calculated. The cells obtained in such a way were incubated for 72 hours in a humid atmosphere with 5% CO2 at 37°C in the cells of plates for immune reactions in RPMI-1640 medium comprising 15% fetal calf serum, […] Neomycine (incubation mixture volume 0.15 ml). 5 x 10^5 cells were introduced into each plate cell. Incubation was carried out in the presence or absence of mitogen phytohemagglutinin (PHA) (Sigma) […] or concanavalin A (ConA) (Sigma) […] with or without addition of the test compounds at different concentrations. […] H^3 -thymidine in RPMI-1640 medium were introduced into each cell 16 hours before incubation termination. Following culturing period termination, 0.15 ml cellular suspension from each plate cell were transferred on the FN-8 paper filters. Filters were dried, washed two times with normal saline for 5 minutes then twice with TCA for 60 minutes. After drying, radioactivity of samples was calculated on a counter in the ZhS-8 scintillator. Stimulation index was calculated as ratio of sample radioactivity with mitogen to sample radioactivity without mitogen.

hydroxyl radical = assay: Hydroxyl radical formation in the Fenton reagent (chemiluminescence); type: biochemical
Wistar male rats = assay: Blood glucose level in intact rats; type: in vivo; settings: for Blood glucose level (mg/dl) 2 hours after / Blood glucose level (mg/dl) 5 hours after: deprived of food; for Blood glucose level (mg/dl) 2 hours before: intragastral four days
Procedure: Experiments were carried out on Wistar male rats weighing 250-300 g. Experimental diabetes was induced with single intravenous injection of streptozotocine (the Synthez cooperative enterprise at the IMBG of the Academy of Sciences of Ukraine) at a dose 42 mg/kg to rats which were preliminarily fasting for 24 hours with access to food immediately following injection. Rats were selected for experiment 2 weeks after diabetes induction with glycemia 120-180 mg/dl. Each group included 12 animals.
The compounds were intragastrally administered to intact animals and to rats with streptozotocine diabetes for four days at daily doses 50 µg/kg and 500 µg/kg in water solution at a rate of 1 ml per 200 g of body mass. Intact animals were given the compounds III and XLIV, and rats with induced diabetes were given the compound XLIV. Check blood glucose level determination was done at the day of experiment, then animals were administered the test compounds and were deprived of food. The control animals received a respective water volume. Effect was estimated by change in blood glucose level in 2 and 5 hours. Then animals received forage and 24 hours after the last drug administration blood was again sampled for examination. 0.1 ml of blood were collected from the tail vein. Glucose level was determined using the o-toluidine method.
Glucose level was calculated in mg/dl using standard glucose solutions. Then the degree of change in glucose level in relation to the initial level was determined for each animal with its expression in percent from the initial level. Final calculation was performed for each group of animals. Each group included 10 animals.

γ-L-glutamylhistamine [compound XLIV]
Progesterone, blood serum level (Experiment) ([1]; intact guinea pigs, individual control 2.53): 2.87 nM/l
Oxyprogesterone, blood serum level (Experiment) ([1]; intact guinea pigs, individual control 2.83): 3.88* nM/l
Desoxycortisol, blood serum level (Experiment) ([1]; intact guinea pigs, individual control 20.8): 30.95* nM/l
Cortisol, blood serum level (Experiment) ([1]; intact guinea pigs, individual control 1474.5): 1891.5* nM/l
Progesterone, blood serum level (Experiment) ([1]; sensitized guinea pigs, individual control 1.73): 5.08** nM/l
Oxyprogesterone, blood serum level (Experiment) ([1]; sensitized guinea pigs, individual control 1.79): 2.31* nM/l
Desoxycortisol, blood serum level (Experiment) ([1]; sensitized guinea pigs, individual control 28.9): 33.5 nM/l
Cortisol, blood serum level (Experiment) ([1]; sensitized guinea pigs, individual control 1910.3): 1997.0 nM/l
portion of active macrophages (peritoneal macrophages; mice, oral three days at 50 and 500 µg/kg): more pronounced at a dose 500 µg/kg
Activity of macrophages, percent (peritoneal macrophages; score 0 (no formazane inclusions, inactive PM), 50 µg/kg orally for three days): 23.9 ± 4.4%
Activity of macrophages, percent (peritoneal macrophages; score 0 (no formazane inclusions, inactive PM), 500 µg/kg orally for three days): 17.4 ± 2.5%
Activity of macrophages, percent (peritoneal macrophages; score 1 (single formazane inclusions), 50 µg/kg orally for three days): 37.3 ± 3.4%
Activity of macrophages, percent (peritoneal macrophages; score 1 (single formazane inclusions), 500 µg/kg orally for three days): 37.3 ± 3.9%
Activity of macrophages, percent (peritoneal macrophages; score 2 (inclusions fill up to 1/3 of PM cytoplasm), 50 µg/kg orally for three days): 34.9 ± 5.9%
Activity of macrophages, percent (peritoneal macrophages; score 2 (inclusions fill up to 1/3 of PM cytoplasm), 500 µg/kg orally for three days): 35.8 ± 4.4%
Activity of macrophages, percent (peritoneal macrophages; score 3 (inclusions fill up to 1/2 of PM cytoplasm), 50 µg/kg orally for three days): 5.4 ± 2.0%
Activity of macrophages, percent (peritoneal macrophages; score 3 (inclusions fill up to 1/2 of PM cytoplasm), 500 µg/kg orally for three days): 9.4 ± 2.9%
blasttranformation reaction of human lymphocytes induced by ConA (Human lymphocytes): stimulating effect
Radioactivity, number of pulses for 20 seconds (Human lymphocytes; 10^-3 M/l, +ConA): 1072 ± 135 number of pulses for 20 seconds
Stimulation index (Human lymphocytes; 10^-3 M/l, +ConA): 3.01
Radioactivity, number of pulses for 20 seconds (Human lymphocytes; 10^-3 M/l, no mitogen): 356±51 number of pulses for 20 seconds
Radioactivity, number of pulses for 20 seconds (Human lymphocytes; 10^-4 M/l, +ConA): 1259 ± 90 number of pulses for 20 seconds
Stimulation index (Human lymphocytes; 10^-4 M/l, +ConA): 3.91
Radioactivity, number of pulses for 20 seconds (Human lymphocytes; 10^-4 M/l, no mitogen): 322 ± 38 number of pulses for 20 seconds
Radioactivity, number of pulses for 20 seconds (Human lymphocytes; 10^-5 M/l, +ConA): 1695 ± 139 number of pulses for 20 seconds
Stimulation index (Human lymphocytes; 10^-5 M/l, +ConA): 5.00
Radioactivity, number of pulses for 20 seconds (Human lymphocytes; 10^-5 M/l, no mitogen): 339 ± 32 number of pulses for 20 seconds
Radioactivity, number of pulses for 20 seconds (Human lymphocytes; 10^-6 M/l, +ConA): 1963 ± 205 number of pulses for 20 seconds
Stimulation index (Human lymphocytes; 10^-6 M/l, +ConA): 6.96
Radioactivity, number of pulses for 20 seconds (Human lymphocytes; 10^-6 M/l, no mitogen): 289 ± 52 number of pulses for 20 seconds
Radioactivity, number of pulses for 20 seconds (Human lymphocytes; 10^-7 M/l, +ConA): 1786 ± 241 number of pulses for 20 seconds
Stimulation index (Human lymphocytes; 10^-7 M/l, +ConA): 7.38
Radioactivity, number of pulses for 20 seconds (Human lymphocytes; 10^-7 M/l, no mitogen): 242 ± 19 number of pulses for 20 seconds
Radioactivity, number of pulses for 20 seconds (Human lymphocytes; 10^-8 M/l, +ConA): 971 ± 44 number of pulses for 20 seconds
Stimulation index (Human lymphocytes; 10^-8 M/l, +ConA): 4.17
Radioactivity, number of pulses for 20 seconds (Human lymphocytes; 10^-8 M/l, no mitogen): 233 ± 54 number of pulses for 20 seconds
relative effect: I+/I- (hydroxyl radical; 1 µM): 1.0
Chemiluminiscence intensity (mV) + σn-1 (hydroxyl radical; 1 µM, control of the series as in the table): 7747 ± 259 mV
relative effect: I+/I- (hydroxyl radical; 0.01 mM): 0.83
Chemiluminiscence intensity (mV) + σn-1 (hydroxyl radical; 0.01 mM, control of the series as in the table): 6444 ± 267 mV
relative effect: I+/I- (hydroxyl radical; 0.1 mM): 0.59
Chemiluminiscence intensity (mV) + σn-1 (hydroxyl radical; 0.1 mM, control of the series as in the table): 4625 ± 393 mV
relative effect: I+/I- (hydroxyl radical; 1 mM): 0.28 (*)
Chemiluminiscence intensity (mV) + σn-1 (hydroxyl radical; 1 mM, control of the series 7839 ± 171, 1120 ± 163, 4974 ± 283 or 1332 ± 172): 2197 ± 311 mV
Blood glucose level (mg/dl) 24 hours after (Wistar male rats; 50 µg/kg): 79.9 ± 5.2 mg/dL
Blood glucose level (mg/dl) 24 hours after (Wistar male rats; 500 µg/kg): 83.7 ± 4.0 mg/dL
Blood glucose level (mg/dl) 2 hours after (Wistar male rats; 50 µg/kg): 60.8 ± 4.0 mg/dL
Blood glucose level (mg/dl) 5 hours after (Wistar male rats; 50 µg/kg): 64.0 ± 3.1 mg/dL
Blood glucose level (mg/dl) 2 hours after (Wistar male rats; 500 µg/kg): 64.8 ± 4.2 mg/dL
Blood glucose level (mg/dl) 5 hours after (Wistar male rats; 500 µg/kg): 65.9 ± 3.9 mg/dL
Blood glucose level (mg/dl) 2 hours before (Wistar male rats; 50 µg/kg): 81.2 ± 3.8 mg/dL
Blood glucose level (mg/dl) 2 hours before (Wistar male rats; 500 µg/kg): 80.8 ± 2.7 mg/dL
